In US20250332173A1, “COMPOUNDS AND METHODS FOR MODULATING NUCLEIC ACID SPLICING” (REMIX THERAPEUTICS INC., priority 2021, published 2025):
Like-named read-outs stand apart in the source and are kept apart here.

What was measured:
Format in all cases: cell-based, human
MYB mRNA = assay: RT-qPCR splicing assay, MYB canonical junction (CJ) and alternative junction (AJ) mRNA; conditions: Homo sapiens; for AC50: increase in MYB alternative junction (AJ) mRNA, read-out: MYB AJ AC50
How it was run: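 A673 cells (normalized to PPIA) or K562 cells (normalized to GAPDH or GUSB) were treated 24 h at 37 °C with an 11-point 3-fold dilution series, top 10 uM, DMSO ≤0.25%. Cell lysates went to one-step RT-qPCR measuring canonical- and alternative-junction MYB or HTT transcripts.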

HTT = assay: HiBiT protein abundance assay, HTT HiBiT K562 cell line; conditions: HiBiT K562 cell line, 24 hours, top dose 10 μM; read-out: Effect on protein abundance, HTT (IC50 category)
How it was run: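 K562 knock-in lines with endogenous HiBiT-tagged target, 10,000 cells/well in IMDM + FBS, treated 24 h at 37° C with 10-point 3-fold dilutions (top 10 μM final; DMSO ≤0.25%). Lytic Nano-Glo HiBiT luminescence normalized to untagged K562 baseline and DMSO controls; IC50 = concentration giving 50% abundance via four-parameter fit.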

Target C = assay: HiBiT protein abundance assay, Target C (Promega Nano-Glo HiBiT Lytic Detection System, knock-in K562 cell line); conditions: Homo sapiens, K562, 24 h, HiBiT K562 cell line, 24 hours, top dose 10 μM; read-out: Effect on protein abundance, Target C (IC50 category)
How it was run: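 Knock-in K562 cells carrying HiBiT-tagged Target C, 10,000 per well, treated 24 h at 37 °C with 10-point threefold dilutions (top 10 μM final, ≤0.25% DMSO). Lytic HiBiT luminescence read; response normalised to unmodified K562 and DMSO controls, four-parameter fit interpolated at 50% for IC50.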

[1] = Table 5 panel, canonical junction qPCR, compound concentration having 50% response in CJ decrease, read-out: MYB IC50 (decrease in CJ mRNA levels)
[2] = decrease in MYB canonical junction (CJ) mRNA, RT-qPCR, read-out: MYB CJ IC50

Row | SMILES | IC50 (MYB mRNA; [1]) [nM] | IC50 (MYB mRNA; [2]) [nM] | AC50 (MYB mRNA; RT-qPCR) [nM] | IC50 (HTT) [nM] | IC50 (Target C) [nM]
1 | CN1CC=C(c2ccc3c(=O)n(-c4ccc5nn(C)cc5c4)cnc3c2)CC1 [Compound 159] | > 10000 | > 10000 | > 10000 | > 10000 | > 10000
2 | Cc1cn2nc(-c3cc(F)c4c(=O)n(C5CCNCC5)ccc4c3)cc(C)c2n1 [Compound 322] | < 100 | < 100 | < 100 | < 100 | < 100
3 | Cc1cn2nc(-c3ccc4c(=O)n([C@H]5CCN(C)[C@H](C)C5)ncc4c3)cc(C)c2n1 [Compound 278] | 100 to 1000 | 100 to 1000 | 100 to 1000 | < 100 | < 100
4 | Cc1cn2cc(-c3cc(F)c4c(=O)n(C5CCCNCC5)cnc4c3)cc(F)c2n1 (stereo not shown) [Compound 353, 3-(azepan-4-yl)-5-fluoro-7-{8-fluoro-2-methylimidazo[1,2-a]pyridin-6-yl}quinazolin-4-one] | 100 to 1000 | 100 to 1000 | 100 to 1000 | 100 to 1000 | 1000 to 10000
5 | Cc1cn2cc(-c3ccc4c(=O)n(C5CCNCC5)cnc4c3)nc2c(C)n1 [Compound 286] | 1000 to 10000 | 1000 to 10000 | 1000 to 10000 | 1000 to 10000 | 1000 to 10000
6 | Cc1cn2nc(-c3ccc4c(c3)CCN(C3CCNC3)C4=O)cc(C)c2n1 (stereo not shown) [Compound 269] | > 10000 | > 10000 | > 10000 | > 10000 | 1000 to 10000
7 | Cc1cn2cc(-c3ccc4c(=O)n(C5CCNCC5)ccc4c3)cc(F)c2n1 [Compound 276] | < 100 | < 100 | < 100 | < 100 | < 100
8 | Cc1cn2cc(-c3ccc4c(=O)n(C5CCN[C@@H](C)C5)cnc4c3)cc(F)c2n1 (stereo partly shown) [Compound 294] | 100 to 1000 | 100 to 1000 | 100 to 1000 | 100 to 1000 | 1000 to 10000
9 | Cc1cn2nc(-c3ccc4c(=O)n(C5CCN(C)CC5)cnc4c3F)cc(C)c2n1 [Compound 290] | 100 to 1000 | 100 to 1000 | 100 to 1000 | 100 to 1000 | 100 to 1000
10 | CN1CCC(n2cnc3cc(-c4cn[nH]c4)ccc3c2=O)CC1 [Compound 299] | > 10000 | > 10000 | > 10000 | > 10000 | > 10000
11 | CNc1cc(-c2cc(F)c3nc(C)cn3c2)cc2ncn(C3CCNCC3)c(=O)c12 [Compound 358, 7-{8-fluoro-2-methylimidazo[1,2-a]pyridine-6-yl}-5-(methylamino)-3-(piperidin-4-yl)quinazolin-4-one] | 1000 to 10000 | 1000 to 10000 | 1000 to 10000 | 1000 to 10000 | 1000 to 10000
12 | Cc1cn2cc(-c3ccc4c(=O)n(C5CCNCC5)cnc4c3)cc(C(F)(F)F)c2n1 [Compound 306] | 1000 to 10000 | > 10000 | 1000 to 10000 | 100 to 1000 | 1000 to 10000
13 | Cc1cn2nc(-c3ccc4c(=O)n(C5CCN(C)CC5)ccc4c3)cc(C)c2n1 [Compound 310] | < 100 | < 100 | < 100 | 100 to 1000 | 100 to 1000
14 | CCN1CCC(N2CCc3cc(-c4cc(C)c5nc(C)cn5n4)ccc3C2=O)CC1 [Compound 270] | 1000 to 10000 | 1000 to 10000 | 1000 to 10000 | 1000 to 10000 | > 10000
15 | Cc1cn2nc(-c3ccc4c(c3)CCN(C3CCN(C)CC3)C4=O)cc(C)c2n1 [Compound 268] | 1000 to 10000 | 100 to 1000 | 1000 to 10000 | 1000 to 10000 | > 10000
16 | Cc1cn2nc(-c3ccc4c(=O)n(C5CCNC6(CC6)C5)ncc4c3)cc(C)c2n1 (stereo not shown) [Compound 274] | < 100 | < 100 | < 100 | < 100 | < 100
17 | Cc1cc(-c2cc(F)c3c(=O)n(C4CCNC5(CC5)C4)cnc3c2)nc2cn(C)nc12 (stereo not shown) [Compound 361, 3-{4-azaspiro[2.5]octan-7-yl}-7-{2,7-dimethylpyrazolo[4,3-b]pyridin-5-yl}-5-fluoroquinazolin-4-one] | < 100 | < 100 | < 100 | < 100 | < 100
